Biological target: T1, porcine ficolin 2 (FCN2) (Sus scrofa, UniProt Q29041)
T1 sequence (Q29041 27-323): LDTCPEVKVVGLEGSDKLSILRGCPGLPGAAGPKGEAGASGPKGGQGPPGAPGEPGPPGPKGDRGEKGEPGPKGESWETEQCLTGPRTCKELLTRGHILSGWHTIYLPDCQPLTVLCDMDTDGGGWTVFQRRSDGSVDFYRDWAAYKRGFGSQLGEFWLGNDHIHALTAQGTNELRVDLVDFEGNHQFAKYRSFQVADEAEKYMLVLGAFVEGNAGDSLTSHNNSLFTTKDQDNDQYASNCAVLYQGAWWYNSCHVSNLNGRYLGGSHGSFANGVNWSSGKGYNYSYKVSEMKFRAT
Type: biochemical
Conditions: 60% (v/v) pig serum, 37 °C, 20 min; PMOXA-coated NPs; S2 site, competitive

## CC(=O)N[C@H]1C(O)O[C@H](CO)[C@@H](O)[C@@H]1O (stereo partly shown) [GlcNAc]
  IC50: 67 mM

— PMC11920416 (Nature Communications, 2025)
